Laboratory results as given in PMC9008879, “Inhibition of CYP3A-mediated Midazolam Metabolism by Kaempferia Parviflora” (Food Safety, 2022).

Assays:
[1] = test system: CYP3A; test: Direct inhibition of CYP3A-mediated MDZ 1'-hydroxylation activity in human liver microsomes; assay type: in vitro ADME; details: HLM, 10 µM MDZ; 5,7-DMF 0.03-30 µM, 3,5,7,3',4'-PMF 0.02-20 µM, no pre-incubation
Experimental: An in vitro study was carried out to investigate the inhibitory effects of KP extract, 5,7-DMF, and 3,5,7,3’,4’-PMF on CYP3A-mediated MDZ 1’-hydroxylation (MDZ 1’-OH) activity.
The reaction mixtures, each with a total volume of 200 µL, consisting of 100 µg pooled HLM, 10 µM MDZ, and a nicotinamide adenine dinucleotide phosphate (NADPH)-generating system (1 mM NADPH, 8 mM glucose 6-phosphate, and 0.5U glucose 6-phosphate dehydrogenase) in 80 mM phosphate buffer (pH 7.4), were incubated at 37°C for 5 min in the presence of KP extract (40-80 µg/ml), 5,7-DMF (0.03-30 µM), or 3,5,7,3’,4’-PMF (0.02-20 µM). […] After centrifugation at 20,800 × g for 10 min at 4°C, the supernatant was injected into an HPLC apparatus equipped with a CAPCELLPAK C18 SG120 column (4.6 mm × 250 mm, Shiseido) and 1’-hydroxymidazolam was analyzed according to a previous report[20]^,[21]^). Control activity was determined under the same conditions with a reaction mixture containing water, 1% methanol, or 1% acetonitrile instead of KP extract, 5,7-DMF, or 3,5,7,3’,4’-PMF. Results were expressed as a percentage of each control activity. The inhibition mode and inhibition constant (Ki) values of KP extract on MDZ 1’-OH activity were calculated using nonlinear regression analysis using GraphPad Prism 7.03 (GraphPad Software Inc., La Jolla, CA, USA).

[2] = test system: CYP3A; test: Pre-incubation study (time-dependent / mechanism-based inhibition) of MDZ 1'-OH activity in human liver microsomes; assay type: in vitro ADME; details: for Change of MDZ 1'-OH activity after pre-incubation: HLM, pre-incubation 0-30 min with or without NADPH, KP extract 120 µg/ml, 5,7-DMF 30 µM, 3,5,7,3',4'-PMF 20 µM; for KI (inactivation) / kinact / kinact/KI: human, human liver microsomes, probe midazolam (MDZ) 10 µM, 1'-hydroxylation, HLM + NADPH, 10-fold dilution; for KI (inactivation): pre-incubation 5-30 min, read-out: KI (inhibitor concentration causing half-maximal inactivation); for kinact / kinact/KI: pre-incubation; for kinact: read-out: kinact (maximal inactivation rate constant) (converted); for kinact/KI: read-out: kinact/KI (efficiency of inactivation) (converted)
Experimental: Pre-incubation studies were performed to determine whether the metabolic intermediates produced by KP ingredients cause an MBI that inactivates CYP3A. KP extract (120 µg/ml), 5,7-DMF (30 µM), or 3,5,7,3’,4’-PMF (20 µM) was pre-incubated with HLM at 37°C for 10, 20, or 30 min, in the presence or absence of a NADPH-generating system. After the pre-incubation step, MDZ was added, and MDZ 1’-OH activity was assayed as described above.
In addition, another assay was designed to minimize the direct inhibition of CYP3A by KP ingredients by diluting the contents of the inactivation mixture 10-fold. As a primary incubation mixture, KP extract (30-120 µg/ml), 5,7-DMF (6-30 µM), or 3,5,7,3’,4’-PMF (5-20 µM) were pre-incubated in the presence of HLM and a NADPH-generating system at 37°C. Pre-incubation times were 5, 10, 15, or 20 min for KP extract, and 5, 10, 20, or 30 min for 5,7-DMF and 3,5,7,3’,4’-PMF. At determined time points, an aliquot of 50 µL of the primary reaction mixture was moved to 450 µL of the secondary incubation mixture containing 10 µM MDZ, and further incubated for 5 min. The oxidation of MDZ was analyzed as described above.
The decrease in the natural logarithm of the % residual MDZ 1’-OH activity against pre-incubation time was plotted for each inhibitor concentration, and the apparent inactivation rate constant (Kobs) values were described as the negative slopes of the lines. The maximal inactivation rate constant (kinact) and the inhibitor concentration causing half-maximal inactivation (KI) were estimated by double-reciprocal plot of the Kobs against the inhibitor concentration. The efficiency of inactivation was calculated as the ratio of kinact to KI.

[3] = test system: CYP3A4; set-up: method as in PMID 17709371; details: HLM and recombinant microsomes; cited from earlier work
[4] = test system: CYP3A; set-up: method as in PMID 29550915; details: mice, 5,7-DMF for ten days; cited from earlier work

**Q.** With `COc1cc(OC)c2c(=O)c(OC)c(-c3ccc(OC)c(OC)c3)oc2c1` [3,5,7,3’,4’-PMF, 3,5,7,3’,4’-pentamethoxyflavone] as the compound, how does the “Direct inhibition of MDZ 1'-OH activity” value [1] read?
**A.** did not inhibit

**Q.** What about the “Change of MDZ 1'-OH activity after pre-incubation” value [2] of the same compound?
**A.** time- and NADPH-dependent decrease

**Q.** And the KI (inactivation) [2]?
**A.** 25.5 µM

**Q.** And the kinact [2]?
**A.** 2.67e-05 s⁻¹

**Q.** And the kinact/KI [2]?
**A.** 1.05 M⁻¹ s⁻¹

**Q.** For `COc1cc(OC)c2c(=O)cc(-c3ccccc3)oc2c1` [5,7-DMF, 5,7-dimethoxyflavone], which “Direct inhibition of MDZ 1'-OH activity” value [1] is on record?
**A.** did not inhibit

**Q.** And the “Metabolizing CYP enzymes” value [3]?
**A.** not metabolized by CYP3A4, but by CYP1A1 and CYP1A2

**Q.** And the “AUC of MDZ” value [4]?
**A.** increased

**Q.** What about the “Elimination half-life (t1/2) of MDZ” value [4] of the same compound?
**A.** increased

**Q.** And the “Hepatic CYP3A expression” value [4]?
**A.** decreased

**Q.** What about the “Change of MDZ 1'-OH activity after pre-incubation” value [2] of the same compound?
**A.** time- and NADPH-dependent decrease

**Q.** And the KI (inactivation) [2]?
**A.** 10.7 µM

**Q.** And the kinact [2]?
**A.** 0.000433 s⁻¹

**Q.** And the kinact/KI [2]?
**A.** 40 M⁻¹ s⁻¹
